# Laboratory results as given in US12173039B1, “TPL2 inhibiting agents, uses thereof, and detection of TPL2” (Washington University, priority 2021, dated 2024).
# Experiments:
# [1] = tested on: HPNE-KRAS^G12D cells, HEKT/tH-KRAS^G12V cells, conventional PDAC lines, and PDCLs; assay: Anchorage independent soft agar growth assay, human KRAS-mutant lines; type: cell-based
# Experimental: Cells were seeded at 5000-15000 cells in 0.3% noble agar-DMEM suspension per well, in triplicate, in 24 well plate. For drug treatment, compound was added to cell suspension at 1× concentration. Seeded cells were fed with fresh 0.6% agar-DMEM mix once every 7-12 days. […] After 3-6 weeks, colonies were counted under microscope and imaged. Colony count was normalized to control and graphed in GraphPad Prism v7/8.
# HEK T/tH-KRAS^G12V cells = assay: Drug response and viability assay, HEK T/tH-KRAS^G12V with or without MEK1-5DD; type: cell-based, human; conditions: 96 hours, GI50
# Experimental: Cells were seeded at 1500-2500 cells per well in triplicates, in 96 well format. Next day, appropriate inhibitor was added in serial dilution from 1.00×102 μM or indicated single doses. Vehicle (DMSO) was added to match volume of inhibitor used for highest concentration. After 96-120 hours, 5× AlamarBlue® reagent (resazurin sodium salt, Sigma) was added to wells and incubated for 2-4 hours. Fluorescence at 585 nm (excitation 555 nm) was measured by SpectraMax i3 Microplate Reader. Raw values were normalized to vehicle, analyzed and graphed using GraphPad Prism v7/8 software.
# [2] = tested on: serum-response element (SRE); assay: Serum-response element (SRE) luciferase reporter assay; type: cell-based, human; conditions: HPAC cells
# Experimental: Cells stably expressing plasmid encoding serum-response-element (SRE) or NFKB promoter driven Firefly luciferase and constitutive Renilla luciferase were seeded at equal density per well and treatment was initiated the next day for 16-24 duration. Alternatively, 293T reporter cells were transfected in duplicate or triplicate with 1 μg of appropriate plasmid DNA. Medium was replaced 16-18 hours later and at 48 hours post-transfection reporter activity was measured using Dual-Glo® Luciferase Assay System. Data was acquired using SpectraMax i3Microplate Reader and analysis was performed by calculating ratio of firefly:renilla. Values were normalized to control and graphed using GraphPad Prism v7/8 software.
# p-p105, p-p65 = assay: Immunoblots of NF-κB markers in PDAC cells; type: cell-based, human; conditions: Pa01C, Pa02C, Pa03C, and HPAC cells; IRAK4 inhibition
# Experimental: (§1) Standard immunoblotting procedure was followed. Cells were washed twice with ice-cold 1×PBS and lysed with ice-cold triton-X lysis buffer (25 mM Tris, pH 7.4, 150 mM NaCl, 5 mM EDTA, 1% Triton-X) containing 1× protease (10 μg mL-1 leupeptin, 700 ng mL-1 pepstatin, 170 ng mL-1 aprotinin, 1 mM PMSF) and phosphatase (10 mM NaF, 1 mM Na3VO4, 1 mM Na4P2O^7, 5 mM Na b-glycerophosphate) inhibitors. Lysates were quantified by Bradford assay (Thermo Scientific), normalized for concentration, and reduced and denatured with 6×SDS sample buffer followed by boiling for 5 minutes. 20-40 μg of protein per sample was resolved by SDS-PAGE, blotted on PVDF membrane and probed with primary antibodies (Cell Signaling Technologies: p-ERK1/2 (#4370), p-MEK1/2 (#9154), ERK1/2 (#4695), MEK1/2 (#8727), p-p105 (#4806), NFS2KB1 p105/p50 (#3035), p-IRAK4 (#11927), IRAK4 (#4363), ubiquitin (#43124), anti-HA (#3724), p-p90RSK (#11989), RSK1/2/3 (#9355), p-TPL2 (#4491), PARP (#9532), p-B-RAF S445 (#2696), BRAF (#9433S). Santa Cruz Biotechnology: GAPDH (#sc-32233), p-p65 S536 (#sc101752). Thermo Fisher Scientific: p-55 TPL2 (#PA5-36635). EMD Millipore: IRAK4 (#07-418). R&D systems: TPL2/MAP3K8 (#MAB4586). Novus Biologicals: anti-AU1 (#NB600-453). Abcam: p-p65 S276 (#ab194726)). Membranes were incubated with appropriate HRP-conjugated secondary antibodies (anti-mouse or anti-rabbit, (1:5000 dilution), Jackson Laboratory) and imaged using chemiluminescent substrate. Additional steps for immunoprecipitation include incubation of soluble fraction lysate with anti-HA magnetic beads (Thermo Scientific cat #88837) overnight at 4° C., washing, and elution using 1×SDS sample buffer and boiling as mentioned in manufacturer's protocol.
# p-TPL2 = assay: Immunoblot of activated ectopic TPL2 (anti-p-TPL2 antibody); type: cell-based, human; conditions: Pa01C and HPAC cells overexpressing TPL2
# Experimental: as §1, with “S536” left out, “S276” left out, “Membranes were incubated with appropriate HRP-conjugated secondary antibodies (anti-mouse or anti-rabbit, (1:5000 dilution), Jackson Laboratory) and imaged using chemiluminescent substrate. Additional steps for immunoprecipitation include incubation of soluble fraction lysate with anti-HA magnetic beads (Thermo Scientific cat #88837) overnight at 4° C., washing, and elution using 1×SDS sample buffer and boiling as mentioned in manufacturer's protocol.” left out
smiles,measurement,setting,value
"CC[C@@H]1[C@H](F)C(=O)N[C@@H]1COc1nccc2cc(C(N)=O)c(OC)cc12 [PF06650833, 1-(((2S,3S,4S)-3-ethyl-4-fluoro-5-oxopyrrolidin-2-yl)methoxy)-7-methoxyisoquinoline-6-carboxamide]",AI growth,[1]; HPNE-KRAS^G12D cells,crippled the AI growth
same,AI growth enhanced by IRAK4 overexpression,[1]; HPNE-KRAS^G12D cells ectopically expressing IRAK4,reversed the effect of IRAK4 overexpression
same,loss of sensitivity to growth inhibition on expression of MEK1-5DD,HEK T/tH-KRAS^G12V cells,approximately 3 fold
same,SRE-driven luciferase reporter activity,[2],dose-dependently reduced
same,p-p105 levels,"p-p105, p-p65",suppresses
same,activated state of ectopically expressed TPL2 (p-TPL2),p-TPL2,dose-dependently deactivated
